From PMC9550643 (iScience, 2022)
Read-outs that look alike come from different tables or passages of the source.

Legend:
[1] = biological target: T1, estrogen receptor-α (ERα) (Homo sapiens, UniProt P03372); assay type: cell-based; details: iER-GFP cells, 2 h; mixtures as dilution series, chemicals 1 nM to 100 μM
T1 sequence (P03372 1-595): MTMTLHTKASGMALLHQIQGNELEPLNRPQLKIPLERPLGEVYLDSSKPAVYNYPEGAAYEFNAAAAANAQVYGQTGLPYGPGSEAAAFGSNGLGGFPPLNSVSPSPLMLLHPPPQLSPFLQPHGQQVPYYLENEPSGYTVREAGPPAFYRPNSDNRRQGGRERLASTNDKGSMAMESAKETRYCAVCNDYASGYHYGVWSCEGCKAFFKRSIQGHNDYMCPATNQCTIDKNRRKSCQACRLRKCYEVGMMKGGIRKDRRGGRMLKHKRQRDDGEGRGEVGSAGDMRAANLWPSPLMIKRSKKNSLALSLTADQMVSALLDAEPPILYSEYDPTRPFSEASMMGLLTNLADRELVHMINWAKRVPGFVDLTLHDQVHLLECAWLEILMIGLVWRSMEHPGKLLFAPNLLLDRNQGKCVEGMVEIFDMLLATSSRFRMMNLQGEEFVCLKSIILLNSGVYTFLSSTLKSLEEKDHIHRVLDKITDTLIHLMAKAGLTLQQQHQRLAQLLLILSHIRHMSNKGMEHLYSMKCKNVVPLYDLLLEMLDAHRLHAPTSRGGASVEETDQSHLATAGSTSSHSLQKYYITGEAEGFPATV

estrogen receptor = details: ref Kolle et al., 2010; cited from earlier work
dsRed2skl mRNA = assay type: cell-based, Human; details: 2 h
[2] = tested on: SRC-1, SRC-3, and phosphorylated RNA Pol II (serine 5); assay: Immunofluorescence of co-activator and RNA Pol II recruitment to the PRL-array; assay type: cell-based, Human; details: GFP-ER and iER-GFP cells, 10 nM, 2 h

OC(c1ccc(Cl)cc1)(c1ccc(Cl)cc1)C(Cl)(Cl)Cl [Dicofol]
chromatin binding activity (AUC) as share of the activity observed with E2 [1]: at least 10%

C[C@]12C[C@H](O)[C@H]3[C@@H](CCC4=CC(=O)CC[C@@]43C)[C@@H]1CC[C@@H]2C(=O)CO [Corticosterone]
activity in yeast-based estrogenic assays (estrogen receptor): (anti-)estrogenic activity

Clc1ccc(C(c2ccccc2Cl)C(Cl)(Cl)Cl)cc1 (centres unmarked) [o,p'-DDT]
chromatin binding activity (AUC) as share of the activity observed with E2 [1]: at least 10%

C[C@]12CC[C@@H]3c4ccc(O)cc4CC[C@H]3[C@@H]1CC[C@@H]2O [E2, 17β-estradiol]
dsRed2skl FISH signal, increase above untreated (dsRed2skl mRNA; GFP-ER cells): 3.2 fold
maximal induced dsRed2skl FISH signal (dsRed2skl mRNA; GFP-ER cells): 39,685 ± 2338 IU
dsRed2skl FISH signal, increase above untreated (dsRed2skl mRNA; iER-GFP cells): 11.4 fold
maximal induced dsRed2skl FISH signal (dsRed2skl mRNA; iER-GFP cells): 234,008 ± 1329 IU
dsRed2skl FISH signal, increase above untreated (dsRed2skl mRNA; iGFP-ER cells): 5.0 fold
maximal induced dsRed2skl FISH signal (dsRed2skl mRNA; iGFP-ER cells): 84,564 ± 628 IU
recruitment of SRC-3 to the PRL-array [2]: strong recruitment

COc1ccc(C(c2ccc(OC)cc2)C(Cl)(Cl)Cl)cc1 [Methoxychlor]
chromatin binding activity (AUC) as share of the activity observed with E2 [1]: at least 10%

CC(=O)[C@H]1CC[C@H]2[C@@H]3CCC4=CC(=O)CC[C@]4(C)[C@H]3CC[C@]12C [Progesterone]
activity in yeast-based estrogenic assays (estrogen receptor): (anti-)estrogenic activity

O=S1OCC2C(CO1)C1(Cl)C(Cl)=C(Cl)C2(Cl)C1(Cl)Cl (centres unmarked) [endosulfan]
chromatin binding activity (AUC) as share of the activity observed with E2 [1]: at least 10%

CCOP(=S)(OCC)SCSP(=S)(OCC)OCC [ethion]
chromatin binding activity (AUC) as share of the activity observed with E2 [1]: at least 10%
